Reference: patent US4113946A, “Δ^2,3 -1,4-Morpholine-2-carboxylic acid derivatives as antibacterial agents” (Bristol-Myers Company, priority 1977, dated 1978)
In brackets after ≈: the same amount, converted by molar mass. Read-outs that look alike come from different tables or passages of the source.

Assays:
[1] = tested on: E. coli A9675; experiment: M.I.C. by tube dilution, E. coli A9675; format: cell-based; conditions: Escherichia coli
[2] = tested on: K. pneumoniae A15130; experiment: M.I.C. by tube dilution, K. pneumoniae A15130; format: cell-based; conditions: Klebsiella pneumoniae
[3] = tested on: Ent. cloacae A9657; experiment: M.I.C. by tube dilution, Ent. cloacae A9657; format: cell-based; conditions: Enterobacter cloacae
[4] = tested on: Ent. cloacae A9659; experiment: M.I.C. by tube dilution, Ent. cloacae A9659; format: cell-based; conditions: Enterobacter cloacae, A9659, overnight 37° C.
[5] = tested on: Sal. enteritidis A9531; experiment: M.I.C. by tube dilution, Sal. enteritidis A9531; format: cell-based; conditions: for MIC: Salmonella enterica, ENTERITIDIS
[6] = tested on: Pr. mirabilis A9900; experiment: M.I.C. by tube dilution, Pr. mirabilis A9900; format: cell-based; conditions: Proteus mirabilis
[7] = tested on: Ser. marcescens A20019; experiment: M.I.C. by tube dilution, Ser. marcescens A20019; format: cell-based; conditions: Serratia marcescens
[8] = tested on: D. pneumoniae A9585; experiment: M.I.C. by tube dilution, D. pneumoniae A9585; format: cell-based; conditions: for MIC: Streptococcus pneumoniae, A9585
[9] = tested on: S. aureus BX1633-2 A9606; experiment: M.I.C. by tube dilution, S. aureus BX1633-2 A9606; format: cell-based; conditions: overnight 37° C.; for MIC: Staphylococcus aureus
[10] = in vivo; conditions: mouse, po, 100 mg/kg
[11] = tested on: S. aureus meth.-resist; A15097; experiment: M.I.C. by tube dilution, S. aureus meth.-resist A15097; format: cell-based; conditions: Staphylococcus aureus, at 10^-3 dil'n, overnight 37° C.
[12] = tested on: K. pneumoniae A9977; experiment: M.I.C. by tube dilution, K. pneumoniae A9977; format: cell-based; conditions: Klebsiella pneumoniae
[13] = tested on: Ps. aeruginosa A9843A; experiment: microbe, parasite or virus in culture; format: cell-based; conditions: Pseudomonas aeruginosa
[14] = tested on: E. coli Juhl A15119; experiment: M.I.C. by tube dilution, E. coli Juhl A15119; format: cell-based; conditions: for MIC: Escherichia coli, JUHLA15119
[15] = tested on: S. aureus Smith A9537; experiment: M.I.C. by tube dilution, S. aureus Smith A9537; format: cell-based; conditions: for MIC: Staphylococcus aureus
[16] = tested on: Pr. morganii A15153; experiment: M.I.C. by tube dilution, Pr. morganii A15153; format: cell-based; conditions: Morganella morganii
[17] = tested on: Str. pyogenes A9604; experiment: M.I.C. by tube dilution, Str. pyogenes A9604; format: cell-based; conditions: Streptococcus pyogenes, +5% serum, 50% Nutrient Broth - 45% Antibiotic Assay Broth, overnight 37° C., read-out: M.I.C.
[18] = tested on: Ent. cloacae A9656; experiment: M.I.C. by tube dilution, Ent. cloacae A9656; format: cell-based; conditions: Enterobacter cloacae
[19] = A9657, overnight 37° C., read-out: M.I.C.
[20] = at 10^-4 dilution, overnight 37° C., read-out: M.I.C.
[21] = +5% serum, 50% Nutrient Broth - 45% Antibiotic Assay Broth, overnight 37° C., read-out: M.I.C.
[22] = BX16332A9606, at 10^-2 dil'n, read-out: M.I.C.
[23] = Table 9, compound of Ex. No., dilution not given, read-out: M.I.C. Sal. enteritidis A9531
[24] = Table 9, compound of Ex. No., serum not given, read-out: M.I.C. D. pneumoniae A9585
[25] = Table 9, compound of Ex. No., dilution not given, read-out: M.I.C. E. coli A15119
[26] = SMITHA9537, Table 9, compound of Ex. No., serum and dilution not given, read-out: M.I.C. S. aureus A9537
[27] = Table 9, compound of Ex. No., dilution not given

CC1=C(C(=O)O)N2C(=O)[C@@H](NC(=O)C(N)c3ccccc3)[C@H]2CO1 (stereo partly drawn) [BC-L45, 7β-(α-amino-α-phenylacetamido)-3-methyl-Δ^3 -O-2-isocephem-4-carboxylic acid]
MIC [1]: 32 mg/L (≈ 96.6 µM)
MIC [2]: 8 mg/L (≈ 24.1 µM)
MIC [3, 19]: 4 mg/L (≈ 12.1 µM)
MIC [4]: 125 mg/L (≈ 377 µM)
MIC [5, 20]: 4 mg/L (≈ 12.1 µM)
MIC [6]: 8 mg/L (≈ 24.1 µM)
MIC [7]: > 125 mg/L
MIC [8, 21]: < 0.25 mg/L
MIC [9, 22]: 63 mg/L (≈ 190 µM)
MIC ([9]; BX16332A9606, at 10^-3 dil'n): 8 mg/L (≈ 24.1 µM)
concentration at 0.5 h [10]: 19.4 µg/mL
concentration at 1 h [10]: 15.7 µg/mL
concentration at 2 h [10]: 7.3 µg/mL
concentration at 3.5 h [10]: 2.9 µg/mL
MIC ([11]; read-out: M.I.C.): 63 mg/L (≈ 190 µM)
MIC [12, 20]: 4 mg/L (≈ 12.1 µM)
MIC [13]: > 125 mg/L
MIC [14, 20]: 4 mg/L (≈ 12.1 µM)
MIC ([15]; SMITHA9537, +50% serum, at 10^-4 dilution, overnight 37° C.): 8 mg/L (≈ 24.1 µM)
MIC ([15]; SMITHA9537, at 10^-4 dilution, overnight 37° C.): 1 mg/L (≈ 3.02 µM)
MIC [16, 20]: 63 mg/L (≈ 190 µM)
MIC [17]: < 0.25 mg/L
MIC [18]: 125 mg/L (≈ 377 µM)

O=C(COc1ccccc1)NC1C(=O)N2C(C(=O)O)=C(CCc3ccccc3)OCC12 (stereo not drawn) [BC-L54, 7β-phenoxyacetamido-3-phenethyl-Δ^3 -O-2-isocephem-4-carboxylic acid]
MIC [1]: > 125 mg/L
MIC [2]: > 125 mg/L
MIC ([3]; A9657): > 125 mg/L
MIC [4]: > 125 mg/L
MIC [5]: > 125 mg/L
MIC [6]: > 125 mg/L
MIC [7]: > 125 mg/L
MIC [8, 21]: 0.03 mg/L (≈ 0.071 µM)
MIC ([9]; BX16332A9606, at 10^-2 dil'n): > 125 mg/L
MIC ([9]; BX16332A9606, at 10^-3 dil'n): 8 mg/L (≈ 18.9 µM)
MIC [11]: 125 mg/L (≈ 296 µM)
MIC [12]: > 125 mg/L
MIC [13]: > 125 mg/L
MIC [14, 20]: 0.5 mg/L (≈ 1.18 µM)
MIC ([15]; SMITHA9537, +50% serum, at 10^-4 dilution, overnight 37° C., read-out: M.I.C.): 4 mg/L (≈ 9.47 µM)
MIC ([15]; SMITHA9537, at 10^-4 dilution, overnight 37° C., read-out: M.I.C.): 0.06 mg/L (≈ 0.142 µM)
MIC [16]: > 125 mg/L
MIC [17]: 0.03 mg/L (≈ 0.071 µM)
MIC [18]: > 125 mg/L

CC1=C(C(=O)O)N2C(=O)[C@@H](NC(=O)[C@H](N)c3ccccc3)[C@H]2SC1 [Cephalexin, cephalexin, reference compound]
MIC [1]: 32 mg/L (≈ 92.1 µM)
MIC [3, 19]: 2 mg/L (≈ 5.76 µM)
MIC [4]: 125 mg/L (≈ 360 µM)
MIC [5, 20]: 1 mg/L (≈ 2.88 µM)
MIC [9, 22]: 4 mg/L (≈ 11.5 µM)
MIC ([9]; BX16332A9606, at 10^-3 dil'n, read-out: M.I.C.): 4 mg/L (≈ 11.5 µM)
M.I.C. ([9]; at 10^-2 dil'n): 8 meg./ml.
M.I.C. ([9]; at 10^-3 dil'n): 2 meg./ml.
MIC ([11]; read-out: M.I.C.): 63 mg/L (≈ 181 µM)

CC1=C(C(=O)O)N2C(=O)[C@@H](NC(=O)C(C(=O)O)c3ccccc3)[C@H]2CO1 (stereo partly drawn) [Example 34, 7β-[α-carboxy-α-phenylacetamido]-3-methyl-Δ^3-0-2-isocephem-4-carboxylic acid]
MIC [5, 23]: 32 mg/L (≈ 88.8 µM)
MIC [8, 24]: 4 mg/L (≈ 11.1 µM)
MIC [14, 25]: 125 mg/L (≈ 347 µM)
MIC [15, 26]: 16 mg/L (≈ 44.4 µM)

CC1=C(C(=O)O)N2C(=O)C(NC(=O)Cn3ncnn3)C2CO1 (stereo not drawn) [Example 37, 7β-[2-(2H)-tetrazolylacetamido]-3-methyl-Δ^3-0-2-isocephem-4-carboxylic acid]
M.I.C. Sal. enteritidis A9531 [5, 27]: > 125 µg/mL
M.I.C. D. pneumoniae A9585 ([8]; Table 9, compound of Ex. No., serum not given): 125 µg/mL
M.I.C. E. coli A15119 [14, 27]: > 125 µg/mL
M.I.C. S. aureus A9537 ([15]; Table 9, compound of Ex. No., serum and dilution not given): > 125 µg/mL

CCOC(=O)NC1C(=O)N2C(C(=O)O)=C(C)OCC12 (stereo not drawn) [Example 38, 7β-(Ethoxycarboxamido)-3-methyl-Δ^3-0-2-isocephem-4-carboxylic acid]
MIC [5, 23]: > 125 mg/L
MIC [8, 24]: 32 mg/L (≈ 118 µM)
MIC [14, 25]: > 125 mg/L
MIC [15, 26]: 125 mg/L (≈ 463 µM)
